According to patent publication US20100093642A1, “NOVEL POLYPEPTIDES” (priority 2006, published 2010):
No end group written: not given here.

What was measured:
E. coli (ATCC 25922) = format: cell-based, Escherichia coli
Procedure: (§1) The antibacterial activities of the different peptides were determined by continuous monitoring of bacterial growth with a Bioscreen C microbiology reader (Labsystems Oy, Helsinki, Finland). The test was performed in 100-well flat-bottomed honeycomb plates, in which 50 μl of test fractions were incubated with 50 μl of a suspension of an actively growing culture of bacteria diluted in Mueller Hinton medium to a starting concentration of 3×10^4 cells per ml. […] [NT] 13032) and S. aureus (ATCC 9144), were chosen as test bacteria. […] Polymyxin B (Sigma, St.

[1] = tested on: Listonella (Vibrio) anguillarum, serotype O2 (FT 1801); format: cell-based
Procedure: as §1

Pseudomonas aeruginosa = format: cell-based
Procedure: as §1

[2] = tested on: C. glutamicum (ATCC 13032); format: cell-based, Corynebacterium glutamicum
Procedure: as §1

S. aureus (ATCC 9144) = format: cell-based, Staphylococcus aureus; settings: ATCC 9144
Procedure: as §1

Botrytis cinerea 101 = settings: 48 h
Procedure: (§2) The various derivates of P17 (brominated and non-brominated) were tested for their ability to inhibit fungal growth of the yeast strains Saccaharomyces cerevisiae sp, Candida albicans (ATCC 10231) and Rodotorula sp., and the filamentous strains Botrytis cinerea 101, Penicillium rogveforti, and Fusarium sp. All strains, except C. albicans, were a gift from Prof. A. Tronsmo (The Norwegian University of Life Sciences, Ås, Norway). The fungi were cultivated on potato dextrose agar, supplemented with 2% glucose, at room temperature. Before antifungal testing, the fungi were dissolved in potato dextrose broth (Difco) at half-strength. Cell concentration was determined and adjusted after counting in a Bürker chamber. The filamentous fungi were filtered through a piece of cotton before counting. An aliquot of 50 μl of fungal spores (final concentration 2×10^5 spores per ml) were inoculated in microtiter plates (96 wells) along with 50 μl peptide solution. Peptides, dissolved in distilled water, were tested at final concentrations (two-fold dilutions) ranging from 50 μM to 0.1 μM. Cultures were grown in the dark (without shaking) and with a moist chamber at 25° C. (37° C. for C. albicans). Growth inhibition was determined microscopically after 48 h of incubation. MIC was determined as the lowest concentration of peptide resulting in 50% inhibition of visible growth.

[3] = tested on: Candida albicans (ATCC 10231); settings: ATCC 10231, 48 h
Procedure: as §2

Saccharomyces cerevisiae = settings: 48 h
Procedure: as §2

Penicillum rogveforti = experiment: Antifungal MIC; format: cell-based; settings: filamentous fungi; more than 50% inhibition of visible growth, 48 h
Procedure: as §2

L. anguillarum = format: cell-based, Listonella (Vibrio) anguillarum
Procedure: (§3) The Gram-negative bacteria Listonella (Vibrio) anguillarum, serotype O2 (FT 1801, also coded as AL 104/LFI 6004), originally isolated from Atlantic salmon by staff of the Norwegian Veterinary Institute (Oslo, Norway), Escherichia con (ATCC 25922), and the Gram-positive bacteria Staphylococcus aureus (ATCC 9144) and Corynebacterium glutamicum (ATCC 13032) were used as test organisms. All isolates were grown at room temperature in Mueller Hinton Broth (MBB; Difco Laboratories, Detroit, U.S.A).
(§4) The antibacterial activities of the obtained HPLC fractions were determined by continuous monitoring of bacterial growth with a Bioscreen C microbiology reader (Labsystems Oy, Helsinki, Finland). The test was performed in 100-well flat-bottomed honeycomb plates, in which […] of test fractions were incubated with 50 μl of a suspension of an actively growing culture of bacteria diluted to a starting concentration of 5×10^3 cells per well. The growth chamber was maintained at 20° C. during the incubation period. The absorbance was measured at 2 h intervals for 48 h by a turbidometric method with vertical light photometry and a wide band filter (420-580 nm), which is more insensitive to colour change in the sample compared to single wavelength detection. Cecropin P1(0.5 μg/ml) was used as a positive control during these experiments. Antibacterial activity was determined when the optical density (OD) of the growth control (bacteria plus water) reached an absorbance of approximately 0.3. Fractions were regarded as active when the OD was less than 50% of the growth control.
(§5) The polypeptides of the present invention were isolated and subsequently tested for activity. A serial dilution method was employed to examine the antibacterial activity of the peptides. Two Gram-negative bacteria, L. anguillarum and E. coli, and two Gram-positive bacteria, C. glutamicum and S. aureus, were chosen as test bacteria. The polypeptides of the present invention were active against both Gram-positive and Gram-negative bacteria (table 4).

E. coli = format: cell-based, Escherichia coli
Procedure: as §3, §4, §5

C. glutamicum = format: cell-based, Corynebacterium glutamicum
Procedure: as §3, §4, §5

S. aureus = format: cell-based, Staphylococcus aureus
Procedure: as §3, §4, §5

E. coli K-12 = experiment: Bacterial cell viability, lux luminescence and OD600, with or without LPS; format: cell-based, Escherichia coli; settings: co-incubation with 2.5 μM Aeromonas salmonicida LPS
Source text: (§6) To evaluate the effect of antimicrobial peptides on the viability of bacteria in a fast and reliable manner we used the lux CDABE operon from Photorhabdus luminescens as a reporter system in gram negative test bacteria and the modified luxABCDE operon in S. aureus (Vesterlund et al. 2004). Bacterial bioluminescence is directly dependent on metabolic activity, since reduction equivalents are needed to drive light emission. Any form of interruption of bacterial cell integrity or metabolism will therefore be detected as a reduction in light emission.
(§7) For the assay we used S. aureus (RN4220), E. coli K-12 and Salmonella enterica serovar typhimurium (ATCC 14028) transformed with the respective lux-operon containing plasmids (Vesterlund et al. 2004).
(§8) For each experiment a fresh colony was picked from Luria-Bertani plates supplemented with 10 μg/ml of erythromycin in case of S. aureus and with 100 μg/ml of ampicillin in case of E. coli and S. enterica serovar Typhimurium. Each colony was suspended in 5 ml of Müller-Hinton medium with appropriate antibiotics. The culture was incubated over night at 37° C. in a shaking incubator. The next morning 0.5 ml of this culture was transferred to 30 ml fresh MH medium in an Erlenmeyer-flask supplemented with the respective antibiotic. The flask was incubated (200 rpm shaking; 37° C.) until an OD600 of 0.5-0.8 was reached. The culture was then diluted to an OD600 of about 0.02-0.03 before transfer to the 96 well opaque plates with optical bottom (Packard ViewPlate) used for the assay.
The synthesized peptides were dissolved in water and aliquots frozen at −18° C. until use. Twofold dilutions of test peptides (final concentrations ranging from 0.31 to 80 μM) were directly prepared in 96 well microtiter plates in a volume of 10 μl in water. 90 μl is of indicator bacteria in MH medium were added directly to the prepared and pre-warmed (30 minutes at 37° C.) plate before starting the measurement in a Victor multiplate reader (Perkin Elmer) at 37° C. Both OD600 and luminescence in counts per second (cps) were followed over 5 hours in measuring intervals of 5 minutes. The plates where shaken before each measurement (20 sec.; 5 mm orbital shaking; 10 sec waiting). The growth curves and light emission curves were drawn and evaluated to determine the MIC for each indicator strain. The MIC was defined as the concentration of test compound causing more than 50% reduction in bioluminescence (cps) or optical density (OD600) after 5 hours, compared to the growth control. Cecropin P1 was used as positive control. […]
A second plate with an otherwise similar setup (as described for the luminescence assay in example 3) was prepared, but with addition of Aeromonas salmonicida LPS to the peptide dilutions before pre-warming. […]

[4] = tested on: Salmonella enterica serovar typhimurium (ATCC 14028); experiment: as above; format: cell-based; settings: co-incubation with 2.5 μM Aeromonas salmonicida LPS
Source text: as §6, §7, §8
The synthesized peptides were dissolved in water and aliquots frozen at −18° C. until use. Twofold dilutions of test peptides (final concentrations ranging from 0.31 to 80 μM) were directly prepared in 96 well microtiter plates in a volume of 10 μl in water. 90 μl is of indicator bacteria in MH medium were added directly to the prepared and pre-warmed (30 minutes at 37° C.) plate before starting the measurement in a Victor multiplate reader (Perkin Elmer) at 37° C. Both OD600 and luminescence in counts per second (cps) were followed over 5 hours in measuring intervals of 5 minutes. The plates where shaken before each measurement (20 sec.; 5 mm orbital shaking; 10 sec waiting). The growth curves and light emission curves were drawn and evaluated to determine the MIC for each indicator strain. The MIC was defined as the concentration of test compound causing more than 50% reduction in bioluminescence (cps) or optical density (OD600) after 5 hours, compared to the growth control. Cecropin P1 was used as positive control. The results (table 14a-b) confirm the results obtained in example 2, showing a pronounced antibacterial effect of the longest peptide fragments. […] The partial peptides P17 HC (1-20), both bromated and unbromated, inhibit growth only in higher concentrations.
A second plate with an otherwise similar setup (as described for the luminescence assay in example 3) was prepared, but with addition of Aeromonas salmonicida LPS to the peptide dilutions before pre-warming. The LPS end concentration in each well was approximately 2.5 μM.

## DLRGACAAAHAL [P17 LC]
E. coli (ATCC 25922)
  Minimal inhibitory concentration, E. coli: >100 µM
[1]
  Minimal inhibitory concentration, L. anguillarum: >100 µM
Pseudomonas aeruginosa
  Minimal inhibitory concentration, P. aeruginosa: >100 µM
[2]
  Minimal inhibitory concentration, C. glutamicum: >100 µM
S. aureus (ATCC 9144)
  Minimal inhibitory concentration, S. aureus: >100 µM
Botrytis cinerea 101
  Minimal inhibitory concentration (MIC), Botrytis cinerea: >100 µM
[3]
  Minimal inhibitory concentration (MIC), Candida albicans: >100 µM
Saccharomyces cerevisiae
  Minimal inhibitory concentration (MIC), Saccharomyces cerevisiae: >100 µM
Penicillum rogveforti
  Minimal inhibitory concentration (MIC), Penicillum rogveforti: >100 µM

## SWLSKTAKKLENSAKKRISEGIAIAIQGGPR [Cecropin P1, reference compound]
L. anguillarum
  Minimal inhibitory concentration (MIC), L. anguillarum: 1.2 µM
E. coli
  Minimal inhibitory concentration (MIC), E. coli: 1.2 µM
C. glutamicum
  Minimal inhibitory concentration (MIC), C. glutamicum: 1.6 µM
S. aureus
  Minimal inhibitory concentration (MIC), S. aureus: 12.5 µM
E. coli K-12; OD600, 5 hours
  MIC, more than 50% reduction in optical density, E. coli, P + LPS: 20 µM
E. coli K-12; luminescence (cps), 5 hours
  MIC, more than 50% reduction in luminescence, E. coli, P + LPS: 20 µM
[4]; OD600, 5 hours
  MIC, more than 50% reduction in optical density, S. enterica, P + LPS: 10 µM
[4]; luminescence (cps), 5 hours
  MIC, more than 50% reduction in luminescence, S. enterica, P + LPS: 10 µM
